The results in this text go back to patent US5578608A, “Symmetrical diaryl and diheteroanyl cis epoxy alkanes antiviral compounds” (Eli Lilly and Company, priority 1995, dated 1996).

The first test concerns the target T1, HIV-1 protease (Human immunodeficiency virus type 1 group M subtype B, UniProt P04585).
T1 construct: made in house; host or cells: E. coli K12 L507/pHP10D (NRRL B-18560)
Kind of test: biochemical. As to conditions: 16 h incubation at room temperature, MES-ALB buffer pH 5.5; normalized to a positive control. The procedure: A culture of E. coli K12 L507/pHP10D was grown to mid-log phase at 32° C. in LB media containing 12.5 μg/ml tetracycline. The cultivation temperature was quickly elevated to 40° C. to induce gene expression, and the cells were allowed to grow for 2.5 hours at this temperature before the culture was quickly chilled on ice. The cells were centrifuged and the cell pellet was resuspended in 20 mL 50 mmol MES buffer (pH 6.0) containing 1 mmol EDTA, 1 mmol DTT, 1 mmol PMSF and 10% glycerol ("Buffer A"). Cells were lysed by sonication using a Fischer Model 300 Dismembrator and a microtip probe. Following centrifugation at 27,000 x g, the supernatant was diluted to a total volume of 60 mL with Buffer A and loaded onto a 2.0×19 cm QAE-Sepharose column (1 mL/min, 4° C.), that had been equilibrated in Buffer A. The column was washed isocratically for 180 min and then eluted with a gradient eluent of 0-1.0M NaCl in Buffer A over 120 min. Enzymatic activity was measured by HPLC using the synthetic peptide SQNYPIV as described in Margolin et al., Biochem. Biophys. Res. Commun., […], 554-560 (1990); the production of the p1 peptide (SQNY) was measured.
N^a -Biotin-[…]N^e -FITC)-OH SEQ ID NO: 1
The following buffers and solutions are used in the Fluorescence HIV-1 Protease Inhibitor Assay:
To each well of a round bottom, 96-well plate is added 20 μL of the Enzyme Solution followed by 10 μL of the compound to be evaluated in a 20% aqueous dimethylsulfoxide solution. Purified HIV-1 protease was obtained as described above. The resulting solution is incubated for one hour at room temperature and then 20 μL of a solution containing the substrate, N^a -Biotin-[…]N^e-FITC)-OH, in MES-ALB buffer ([…]) is added to each well. The solutions are then incubated for 16 hours at room temperature and then each well is diluted with 150 μL of MES-ALB buffer.
To each well of a second round bottom, 96-well Pandex plate is added 25 uL of the Avidin Coated Beads Solution. Then, to each well is added 25 μL of the diluted incubation solutions, prepared above. The solutions are mixed thoroughly and the plates are loaded into a Pandex® machine, washed, evacuated and read. Sample detection was performed by excitation at 485 nm, reading the resulting epifluorescence at 535 nm.
On to `CC(C)(C)C(NC(=O)OCc1cccnc1)C(=O)NC(Cc1ccccc1)C1OC1C(Cc1ccccc1)NC(=O)C(NC(=O)OCc1cccnc1)C(C)(C)C` [Example 23, 1,6-Diphenyl-2(S),5(S)-di[N-[2(S)-N(pyrid-3-ylmethoxycarbonyl)amino-3,3-dimethylbutanoyl]amino]-3,4-cis-epoxyhexane], for which the “Fluorescence Assay IC50” value was 0.497 µg/mL.

Staying with this test, now noted: 16 h incubation at room temperature, MES-ALB buffer pH 5.5; normalized to a positive control; read-out: Fluorescence Assay IC50 (converted).
Take `CC[C@H](C)[C@H](NC(=O)OCc1ccccc1)C(=O)N[C@@H](Cc1ccccc1)[C@@H]1O[C@@H]1[C@H](Cc1ccccc1)NC(=O)[C@@H](NC(=O)OCc1ccccc1)[C@@H](C)CC` [Example 14]: the IC50 was 236 nM. Same read-out and setting: for `CC[C@H](C)[C@H](NC(=O)N(C)Cc1ccccn1)C(=O)N[C@@H](Cc1ccccc1)[C@@H]1O[C@@H]1[C@H](Cc1ccccc1)NC(=O)[C@@H](NC(=O)N(C)Cc1ccccn1)[C@@H](C)CC` [Example 24, 1,6-Diphenyl-2(S),5(S)-di[N-[2(S)-N[[N(methyl)-N(pyrid-2-ylmethyl)amino]carbonyl]amino-3(S)-methylpentanoyl]amino]-3,4-cis-epoxyhexane] the value was 163 nM.

The same test, now with this note: at 1000 ng/ml; read-out: Fluorescence Assay, given as ICxx (1000): xx is the percent inhibition.
For the compound `CCC(NC(=O)N(C)Cc1ccccn1)C(=O)NC(CSc1ccc2ccccc2c1)C1OC1C(CSc1ccc2ccccc2c1)NC(=O)C(CC)NC(=O)N(C)Cc1ccccn1` [Example 35, 1,6-Dinaphth-2-ylthio-2(S),5(S)-di[N-[2(S)-N-[[N(methyl)-N (pyrid-2-ylmethyl)amino]carbonyl]aminobutanoyl]amino]-3,4-cis-epoxyhexane], the inhibition at 1 µg/mL is 23%. Consider `CC[C@H](C)[C@H](NC(=O)N(C)Cc1ccccn1)C(=O)N[C@@H](Cc1ccc2ccccc2c1)[C@@H]1O[C@@H]1[C@H](Cc1ccc2ccccc2c1)NC(=O)[C@@H](NC(=O)N(C)Cc1ccccn1)[C@@H](C)CC` [Example 33, 1,6-Dinaphth-2-yl-2(S),5(S)-di[N-[2(S)-N-[[N(methyl)-N(pyrid-2-ylmethyl)amino]carbonyl]amino-3(S)-methylpentanoyl]amino]-3,4-cis-epoxyhexane], for which the inhibition at 1 µg/mL came to 25%. On the same count and under the same terms, the same measure for `CC(C)[C@H](NC(=O)c1ccc2ccccc2n1)C(=O)N[C@@H](Cc1ccccc1)[C@@H]1O[C@@H]1[C@H](Cc1ccccc1)NC(=O)[C@@H](NC(=O)c1ccc2ccccc2n1)C(C)C` [Example 26, 1,6-Diphenyl-2(S),5(S)-di[N-[2(S)-N(quinolin-2-ylcarbonyl)amino-3-methylbutanoyl]amino]-3,4-cis-epoxyhexane]: 23%.

The test is the same for the next values; noted with them: read-out: Fluorescence Assay IC50 (converted).
Consider `CC(C)C[C@H](NC(=O)OCc1ccccn1)C(=O)N[C@@H](Cc1ccccc1)[C@@H]1O[C@@H]1[C@H](Cc1ccccc1)NC(=O)[C@H](CC(C)C)NC(=O)OCc1ccccn1` [Example 13, 1,6-Diphenyl-2(S),5(S)-di[N-[2(S)-N(pyrid-2-ylmethoxycarbonyl)amino-4-methylpentanoyl]amino]-3,4-cis-epoxyhexane], for which the IC50 was 2880 nM. On to `CC[C@H](NC(=O)OCc1ccccc1)C(=O)N[C@@H](Cc1ccccc1)[C@@H]1O[C@@H]1[C@H](Cc1ccccc1)NC(=O)[C@H](CC)NC(=O)OCc1ccccc1` [Example 2, 1,6-Diphenyl-2(S),5(S)-di[N-[2(S)-N(benzyloxycarbonyl)aminobutanoyl]amino]-3,4-cis-epoxyhexane], for which the IC50 is 14.4 nM.

As for `CC[C@H](NC(=O)OCc1ccc2ccccc2n1)C(=O)N[C@@H](Cc1ccccc1)[C@@H]1O[C@@H]1[C@H](Cc1ccccc1)NC(=O)[C@H](CC)NC(=O)OCc1ccc2ccccc2n1` [Example 10, 1,6-Diphenyl-2(S),5(S)-di[N-[2(S)-N[(quinolin-2-ylmethoxy)carbonyl]aminobutanoyl]amino]-3,4-cis-epoxyhexane], the IC50 is 2.19 nM.

For the compound `C[C@H](NC(=O)OCc1ccccc1)C(=O)N[C@@H](Cc1ccccc1)[C@@H]1O[C@@H]1[C@H](Cc1ccccc1)NC(=O)[C@H](C)NC(=O)OCc1ccccc1` [Example 20, 1,6-Diphenyl-2(S),5(S)-di[N-[2(S)-N(benzyloxycarbonyl)amino]propanoyl]amino-3,4-cis-epoxyhexane], the IC50 is 803 nM. On the same count and under the same terms, for `O=C(N[C@@H](Cn1cccn1)C(=O)N[C@@H](Cc1ccccc1)[C@@H]1O[C@@H]1[C@H](Cc1ccccc1)NC(=O)[C@H](Cn1cccn1)NC(=O)OCc1ccccc1)OCc1ccccc1` [Example 7, 1,6-Diphenyl-2(S),5(S)-di[N-[2(S)-N(benzyloxycarbonyl)amino-3-pyrazol-1-ylpropanoyl]amino]3,4-cis-epoxyhexane] the value was 8260 nM; for `CC[C@H](NC(=O)N(C)Cc1ccc2ccccc2n1)C(=O)N[C@@H](CCCc1ccccc1)[C@@H]1O[C@@H]1[C@H](CCCc1ccccc1)NC(=O)[C@H](CC)NC(=O)N(C)Cc1ccc2ccccc2n1` [Example 38, 1,10-Diphenyl-4(S),7(S)-di[N-[2(S)-N-[[N(methyl)-N(quinolin-2-ylmethyl)amino]carbonyl]aminobutanoyl]amino]-5,6-cis-epoxydecane], 23.8 nM. With `CCCC[C@H](NC(=O)N(C)Cc1ccc2ccccc2n1)C(=O)N[C@@H](Cc1ccccc1)[C@@H]1O[C@@H]1[C@H](Cc1ccccc1)NC(=O)[C@H](CCCC)NC(=O)N(C)Cc1ccc2ccccc2n1` [Example 22, 1,6-Diphenyl-2(S),5(S)-di[N-[2(S)-N[[N(methyl)-N(quinolin-2-ylmethyl)amino]carbonyl]aminohexanoyl]amino]-3,4-cis-epoxyhexane], the IC50 is 437 nM.

The same test, now with this note: read-out: Fluorescence Assay average IC50 (marked *) (converted).
For `CC(C)[C@H](NC(=O)OCc1ccc2cccc(F)c2n1)C(=O)N[C@@H](Cc1ccccc1)[C@@H]1O[C@@H]1[C@H](Cc1ccccc1)NC(=O)[C@@H](NC(=O)OCc1ccc2cccc(F)c2n1)C(C)C` [Example 17, 1,6-Diphenyl-2(S),5(S)-di[N-[2(S)-N[(8-fluoroquinolin-2-ylmethoxy)carbonyl]amino-3-methylbutanoyl]amino]-3,4-cis-epoxyhexane], the IC50 is 23.1 nM. The same measure, in the same setting: the same measure for `CC[C@H](NC(=O)N(C)Cc1ccc2ccccc2n1)C(=O)N[C@@H](Cc1ccccc1)[C@@H]1O[C@@H]1[C@H](Cc1ccccc1)NC(=O)[C@H](CC)NC(=O)N(C)Cc1ccc2ccccc2n1` [Example 18, 1,6-Diphenyl-2(S),5(S)-di[N-[2(S)-N-[[N(methyl)-N(quinolin-2-ylmethyl)amino]carbonyl]aminobutanoyl]amino]-3,4-cis-epoxyhexane]: 8.36 nM. For the compound `CC(C)[C@H](NC(=O)OCc1ccc2ccccc2n1)C(=O)N[C@@H](Cc1ccccc1)[C@@H]1O[C@@H]1[C@H](Cc1ccccc1)NC(=O)[C@@H](NC(=O)OCc1ccc2ccccc2n1)C(C)C` [Example 4, 1,6-Diphenyl-2(S),5(S)-di[N-[2(S)-N[(quinolin-2-ylmethoxy)carbonyl]amino-3-methylbutanoyl]amino]-3,4-cis-epoxyhexane], the IC50 was 59.9 nM.

For orientation: IC50 means the point on the concentration scale where inhibition reaches its midpoint. In general, inhibition refers to the relative decrease from the control value, in per cent.
